# *1 amine or outer side, *2 acyl side, *3 side chain or, on linkers, in order; H or OH if unused. Where a SMILES comes first, the peptide text is derived from it. Bridges are numbered along the chain shown (N, C = ends). Roman numbers before positions name the chains, in order. [ ]: non-standard residue; d: D form. The star is where a group is joined. ξ: configuration not given here. TATA = O=C(CC[*:1])N1CN(C(=O)CC[*:2])CN(C(=O)CC[*:3])C1; Dolaproine = CO[C@@H]([C@@H]1CCCN1)[C@@H](C)C(=O)O; X1 = CC[C@H](C)C(C(CC(=O)[*:2])OC)N(C)[*:1]; 1Nal = N[C@@H](Cc1cccc2ccccc12)C(=O)O; X3 = O=C(CCCC(=O)[*:2])NCCC(=O)[*:1]; PABC = O=C(OCc1ccc(N[*:1])cc1)[*:2]; Hyp = O=C(O)[C@@H]1C[C@@H](O)CN1; hArg = N=C(N)NCCCC[C@H](N)C(=O)O; Cit = NC(=O)NCCC[C@H](N)C(=O)O; X2 = CC(N*)[C@@H](O)c1ccccc1; ξNMeV = CNC(C(=O)O)C(C)C; ξV = CC(C)C(N)C(=O)O; Sar = CNCC(=O)O
# Legend:
# [1] = system: HT-1376 xenograft; assay: Example 2: in vivo efficacy in HT-1376 xenograft (bladder cancer model) in CB17-SCID mice
# Description: The major endpoint was to see if the tumor growth could be delayed or mice could be cured. Tumor volume was measured three times weekly in two dimensions using a caliper, and the volume was expressed in mm^3 using the formula: V=0.5 a×b^2 where a and b are the long and short diameters of the tumor, respectively. The tumor size was then used for calculations of T/C value. The T/C value (in percent) is an indication of antitumor effectiveness; T and C are the mean volumes of the treated and control groups, respectively, on a given day. TGI was calculated for each group using the formula: TGI (%)=[1−(Ti−T0)/(Vi−V0)]×100; Ti is the average tumor volume of a treatment group on a given day, T0 is the average tumor volume of the treatment group on the day of treatment start, Vi is the average tumor volume of the vehicle control group on the same day with Ti, and V0 is the average tumor volume of the vehicle group on the day of treatment start.
# A one-way ANOVA was performed to compare tumor volume among groups, and when a significant F-statistics (a ratio of treatment variance to the error variance) was obtained, comparisons between groups were carried out with Games-Howell test. […] P<0.05 was considered to be statistically significant.
# • Species: Mus Musculus • Strain: CB17-SCID • Age: 6-8 weeks • Sex: female • Body weight: 18-22 g • Number of animals: 21-41 mice plus spare • Animal supplier: Shanghai LC Laboratory Animal Co., LTD.
# The HT-1376 tumor cells were maintained in vitro as a monolayer culture in EMEM medium supplemented with 10% heat inactivated fetal bovine serum at 37° C. in an atmosphere of 5% CO2 in air. The tumor cells were routinely subcultured twice weekly by trypsin-EDTA treatment.
# Each mouse was inoculated subcutaneously at the right flank with HT-1376 tumor cells (5×10^6) in 0.2 ml of PBS with matrigel (1:1) for tumor development. Animals were randomized when the average tumor volume reached 153-164 mm^3.
# Tumor growth inhibition rate for Test articles in the HT-1376 xenograft model was calculated based on tumor volume measurements at day 21 after the start of treatment.
# [2] = biological target: T1, human Nectin-4 (Homo sapiens, UniProt Q96NY8); assay: Nectin-4 Biacore SPR binding assay
# T1 sequence (Q96NY8 32-349): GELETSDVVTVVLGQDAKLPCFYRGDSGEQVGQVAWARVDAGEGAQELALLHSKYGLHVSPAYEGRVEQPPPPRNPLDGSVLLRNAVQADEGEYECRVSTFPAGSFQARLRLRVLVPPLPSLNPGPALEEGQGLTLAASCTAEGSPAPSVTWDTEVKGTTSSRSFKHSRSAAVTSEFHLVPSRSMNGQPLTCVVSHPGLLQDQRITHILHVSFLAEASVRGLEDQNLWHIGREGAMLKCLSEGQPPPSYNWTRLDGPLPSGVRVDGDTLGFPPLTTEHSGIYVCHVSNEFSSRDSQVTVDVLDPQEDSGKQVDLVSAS
# Description: Biacore experiments were performed to determine ka (M^−1 s^−1), kd (s^−1), KD (nM) values of monomeric peptides binding to human Necin-4 protein (obtained from Charles River).
# Human Nectin-4 (residues Gly32-Ser349; NCBI RefSeq: NP_112178.2) with a gp67 signal sequence and C-terminal FLAG tag was cloned into pFastbac-1 and baculovirus made using standard Bac-to-Bac™ protocols (Life Technologies). Sf21 cells at 1×10^6 ml^−1 in Excell-420 medium (Sigma) at 27° C. were infected at an MOI of 2 with a P1 virus stock and the supernatant harvested at 72 hours. […] The protein was eluted with 100 μg/ml FLAG peptide. The eluted protein was concentrated to 2 ml and loaded onto an S-200 Superdex column (GE Healthcare) in PBS at 1 ml/min. 2 ml fractions were collected and the fractions containing Nectin-4 protein were concentrated to 16 mg/ml.
# The protein was extensively desalted to remove uncoupled biotin using spin columns into PBS.
# For analysis of peptide binding, a Biacore 3000 instrument was used utilising a CM5 chip (GE Healthcare). Streptavidin was immobilized on the chip using standard amine-coupling chemistry at 25° C. with HBS-N (10 mM HEPES, 0.15 M NaCl, pH 7.4) as the running buffer. Briefly, the carboxymethyl dextran surface was activated with a 7 minute injection of a 1:1 ratio of 0.4 M 1-ethyl-3-(3-dimethylaminopropyl) carbodiimide hydrochloride (EDC)/0.1 M N-hydroxy succinimide (NHS) at a flow rate of 10 μl/min. For capture of streptavidin, the protein was diluted to 0.2 mg/ml in 10 mM sodium acetate (pH 4.5) and captured by injecting 120 μl of streptavidin onto the activated chip surface. Residual activated groups were blocked with a 7 minute injection of 1 M ethanolamine (pH 8.5) and biotinylated Nectin-4 captured to a level of 1,200-1,800 RU. Buffer was changed to PBS/0.05% Tween 20 and a dilution series of the peptides was prepared in this buffer with a final DMSO concentration of 0.5%. The top peptide concentration was 100 nM with 6 further 2-fold dilutions. The SPR analysis was run at 25° C. at a flow rate of 50 μl/min with 60 seconds association and dissociation between 400 and 1,200 seconds depending upon the individual peptide. Data were corrected for DMSO excluded volume effects. All data were double-referenced for blank injections and reference surface using standard processing procedures and data processing and kinetic fitting were performed using Scrubber software, version 2.0c (BioLogic Software). Data were fitted using simple 1:1 binding model allowing for mass transport effects where appropriate.
# [3] = system: HCT116 xenograft; assay: Example 9.2: in vivo efficacy in HCT116 xenograft in Balb/c nude mice; set-up: species or system Mus Musculus; conditions: for TGI / Tumor volume (TV): day 14; for Tumor volume trace over time: 3 mpk, biw, iv, mean ± SEM
# [4] = 3 mg/kg biw, day 21, groups 8-17
# [5] = 3 mg/kg qw, day 21, groups 8-17
# [6] = 5 mg/kg qw, day 21, groups 8-17
compound,measurement,setting,value
"CC[C@H](C)C(C(CC(=O)N1CCC[C@H]1[C@H](OC)[C@@H](C)C(=O)NC(C)[C@@H](O)c1ccccc1)OC)N(C)C(=O)[C@@H](NC(=O)C(C(C)C)N(C)C(=O)OCc1ccc(NC(=O)[C@H](CCCNC(N)=O)NC(=O)C(NC(=O)CCCC(=O)NCCC(=O)N(C)CC(=O)N(C)CC(=O)N(C)CC(=O)N(C)CC(=O)N(C)CC(=O)N(C)CC(=O)N(C)CC(=O)N(C)CC(=O)N(C)CC(=O)N(C)CC(=O)N[C@H]2CSCCC(=O)N3CN4CN(C3)C(=O)CCSC[C@H](NC(=O)[C@@H](CC(=O)O)NC(=O)[C@H](Cc3cccc5ccccc35)NC(=O)[C@@H]3CCCN3C2=O)C(=O)N[C@@H](CCSC)C(=O)N[C@@H](CCCCNC(=N)N)C(=O)N[C@@H](CC(=O)O)C(=O)N[C@@H](Cc2c[nH]c3ccccc23)C(=O)N[C@@H](CO)C(=O)N[C@@H]([C@@H](C)O)C(=O)N2CCC[C@H]2C(=O)N2C[C@H](O)C[C@H]2C(=O)N[C@@H](Cc2c[nH]c3ccccc23)C(=O)N[C@H](C(N)=O)CSCCC4=O)C(C)C)cc1)C(C)C (stereo partly drawn) [BCY8245, MMAE-PABC-Cit-Val-Glutaryl-BCY8234] (I: [Sar][Sar][Sar][Sar][Sar][Sar][Sar][Sar][Sar][Sar]CP[1Nal][dD]CM[hArg]DWSTP[Hyp]WC-NH2 / II: [ξV][Cit][PABC][ξNMeV]V[X1][Dolaproine]-X2; linker I:11-I:15-I:25 via TATA; linker I:N-II:N via X3)",antitumor activity (in words),[1]; 1 mg/kg,slight antitumor activity
same,TGI,[1]; [4],72.3%
same,Tumor volume (TV),[1]; [4],407 mm^3
same,TGI,[1]; [5],50.9%
same,Tumor volume (TV),[1]; [5],603 mm^3
same,TGI,[1]; [6],66.0%
same,Tumor volume (TV),[1]; [6],465 mm^3
same,Tumor volume,"[1]; 1/3 mpk, qw, iv (1 mg/kg first week, 3 mg/kg following 2 weeks), day 0 after start of treatment (Table 14)",164 ± 16 mm^3
same,Tumor volume,"[1]; 1/3 mpk, qw, iv (1 mg/kg first week, 3 mg/kg following 2 weeks), day 2 (Table 14)",184 ± 12 mm^3
same,Tumor volume,"[1]; 1/3 mpk, qw, iv (1 mg/kg first week, 3 mg/kg following 2 weeks), day 4 (Table 14)",206 ± 14 mm^3
same,Tumor volume,"[1]; 1/3 mpk, qw, iv (1 mg/kg first week, 3 mg/kg following 2 weeks), day 7 (Table 14)",265 ± 21 mm^3
same,Tumor volume,"[1]; 1/3 mpk, qw, iv (1 mg/kg first week, 3 mg/kg following 2 weeks), day 9 (Table 14)",291 ± 10 mm^3
same,Tumor volume,"[1]; 1/3 mpk, qw, iv (1 mg/kg first week, 3 mg/kg following 2 weeks), day 11 (Table 14)",281 ± 28 mm^3
same,Tumor volume,"[1]; 1/3 mpk, qw, iv (1 mg/kg first week, 3 mg/kg following 2 weeks), day 14 (Table 14)",335 ± 16 mm^3
same,Tumor volume,"[1]; 1/3 mpk, qw, iv (1 mg/kg first week, 3 mg/kg following 2 weeks), day 16 (Table 14)",354 ± 11 mm^3
same,Tumor volume,"[1]; 1/3 mpk, qw, iv (1 mg/kg first week, 3 mg/kg following 2 weeks), day 18 (Table 14)",309 ± 19 mm^3
same,Tumor volume,"[1]; 1/3 mpk, qw, iv (1 mg/kg first week, 3 mg/kg following 2 weeks), day 21 (Table 14)",347 ± 14 mm^3
same,T/C,"[1]; 3 mpk, biw (Table 17)",38.1%
same,TGI,"[1]; 3 mpk, biw (Table 17)",72.3%
same,Tumor volume,"[1]; 3 mpk, biw, iv, day 0 after start of treatment (Table 15)",154 ± 30 mm^3
same,Tumor volume,"[1]; 3 mpk, biw, iv, day 2 (Table 15)",248 ± 58 mm^3
same,Tumor volume,"[1]; 3 mpk, biw, iv, day 5 (Table 15)",203 ± 15 mm^3
same,Tumor volume,"[1]; 3 mpk, biw, iv, day 7 (Table 15)",273 ± 45 mm^3
same,Tumor volume,"[1]; 3 mpk, biw, iv, day 9 (Table 15)",356 ± 50 mm^3
same,Tumor volume,"[1]; 3 mpk, biw, iv, day 12 (Table 15)",391 ± 53 mm^3
same,Tumor volume,"[1]; 3 mpk, biw, iv, day 14 (Table 15)",407 ± 53 mm^3
same,Tumor volume,"[1]; 3 mpk, biw, day 14 values of Table 15, Mean ± SEM (Table 17)",407 ± 53 mm^3
same,T/C,"[1]; 3 mpk, qw (Table 17)",56.4%
same,TGI,"[1]; 3 mpk, qw (Table 17)",50.9%
same,Tumor volume,"[1]; 3 mpk, qw, iv, day 0 after start of treatment (Table 15, groups 8-17)",153 ± 26 mm^3
same,Tumor volume,"[1]; 3 mpk, qw, iv, day 2 (Table 15)",254 ± 53 mm^3
same,Tumor volume,"[1]; 3 mpk, qw, iv, day 5 (Table 15)",298 ± 69 mm^3
same,Tumor volume,"[1]; 3 mpk, qw, iv, day 7 (Table 15)",398 ± 61 mm^3
same,Tumor volume,"[1]; 3 mpk, qw, iv, day 9 (Table 15)",468 ± 73 mm^3
same,Tumor volume,"[1]; 3 mpk, qw, iv, day 12 (Table 15)",502 ± 67 mm^3
same,Tumor volume,"[1]; 3 mpk, qw, iv, day 14 (Table 15)",603 ± 76 mm^3
same,Tumor volume,"[1]; 3 mpk, qw, day 14 values of Table 15, Mean ± SEM (Table 17)",603 ± 76 mm^3
same,T/C,"[1]; 3 mpk, qw, day 21 (Table 16)",39.2%
same,TGI,"[1]; 3 mpk, qw, day 21 (Table 16)",74.5%
same,Tumor volume,"[1]; 3 mpk, qw, day 21, Mean ± SEM (Table 16)",347 ± 14 mm^3
same,T/C,"[1]; 5 mpk, qw (Table 17)",43.5%
same,TGI,"[1]; 5 mpk, qw (Table 17)",66.0%
same,Tumor volume,"[1]; 5 mpk, qw, iv, day 0 after start of treatment (Table 15)",153 ± 15 mm^3
same,Tumor volume,"[1]; 5 mpk, qw, iv, day 2 (Table 15)",237 ± 41 mm^3
same,Tumor volume,"[1]; 5 mpk, qw, iv, day 5 (Table 15)",228 ± 36 mm^3
same,Tumor volume,"[1]; 5 mpk, qw, iv, day 7 (Table 15)",317 ± 31 mm^3
same,Tumor volume,"[1]; 5 mpk, qw, iv, day 9 (Table 15)",394 ± 20 mm^3
same,Tumor volume,"[1]; 5 mpk, qw, iv, day 12 (Table 15)",438 ± 31 mm^3
same,Tumor volume,"[1]; 5 mpk, qw, iv, day 14 (Table 15)",465 ± 33 mm^3
same,Tumor volume,"[1]; 5 mpk, qw, day 14 values of Table 15, Mean ± SEM (Table 17)",465 ± 33 mm^3
same,efficacy (in words),[1]; after increasing dosage to 3 mg/kg from day 7,better efficacy
same,anti-tumour activity (in words),"[1]; mouse, in vivo",good anti-tumour activity
same,binding to human Nectin-4 in the SPR binding assay (in words),[2],excellent binding
same,Kd,"[2]; read-out: Human SPR Kd, bicyclic drug conjugates (Table 4)",5.12 nM
same,TGI,[3]; 3 mg/kg biw,94.9%
same,Tumor volume (TV),[3]; 3 mg/kg biw,197 mm^3
same,TGI,[3]; 3 mg/kg qw,57.1%
same,Tumor volume (TV),[3]; 3 mg/kg qw,425 mm^3
same,TGI,[3]; 5 mg/kg qw,105.2%
same,Tumor volume (TV),[3]; 5 mg/kg qw,134 mm^3
same,Tumor volume trace over time,[3]; day 0 after the start of treatment,166 ± 18 mm^3
same,Tumor volume trace over time,[3]; day 2 after the start of treatment,229 ± 40 mm^3
same,Tumor volume trace over time,[3]; day 4 after the start of treatment,215 ± 42 mm^3

# Source: patent publication US12459974B2, “Bicyclic peptide ligands specific for Nectin-4” (priority 2018, dated 2025)
